The supplement of paper PMC6965134
± gives the standard deviation of the averaged measurements.

Experiment: TIMS collisional cross section (CCS, N2) of the lipid ion; higher = larger ion cross section
Conditions: ionization mode: positive, one isomer drawn

| SMILES | TIMS collisional cross section (sample type: Liver) [Å²] | TIMS collisional cross section (sample type: plasma) [Å²] | TIMS collisional cross section (sample type: HeLa) [Å²] |
| --- | --- | --- | --- |
| CC/C=C\C/C=C\C/C=C\C/C=C\C/C=C\CCCC(=O)O[C@H](COC(=O)CCCCCCCCCCCCCCC)COP(=O)([O-])OCC[N+](C)(C)C [PC 16:0_20:5] (ion (formula + adduct): [C44H78NO8P+H] 1+) | 285.7 | – | – |
| CCCCC/C=C\C/C=C\C/C=C\C/C=C\C/C=C\CCC(=O)O[C@H](COC(=O)CCCCCCCCCCCCCCC)COP(=O)([O-])OCC[N+](C)(C)C [PC 16:0_22:5@] (ion (formula + adduct): [C46H82NO8P+H] 1+) | 292.7 | – | – |
| CCCCC/C=C\C/C=C\C/C=C\C/C=C\C/C=C\CCC(=O)O[C@H](COC(=O)CCCCCCCCCCCCCCC)COP(=O)([O-])OCC[N+](C)(C)C [PC 16:0_22:5] (ion (formula + adduct): [C46H82NO8P+H] 1+) | – | 293.3 | – |
| CC/C=C/C/C=C/C/C=C/C/C=C/C/C=C/C/C=C/CCC(=O)O[C@H](COC(=O)CCCCCCCCCCCCCCC)COP(=O)([O-])OCC[N+](C)(C)C [PC 16:0_22:6] (ion (formula + adduct): [C46H80NO8P+H] 1+) | – | 292 | 291.8 |
| CCCCC/C=C\C/C=C\C/C=C\CCCCC(=O)O[C@H](COC(=O)CCCCCCC/C=C\CCCCCC)COP(=O)([O-])OCC[N+](C)(C)C [PC 16:1@_18:3] (ion (formula + adduct): [C42H76NO8P+H] 1+) | – | 280.6 | 279.2 |
| CCCCC/C=C\C/C=C\C/C=C\C/C=C\CCCC(=O)O[C@H](COC(=O)CCCCCCC/C=C\CCCCCC)COP(=O)([O-])OCC[N+](C)(C)C [PC 16:1@_20:4] (ion (formula + adduct): [C44H78NO8P+H] 1+) | – | 285.8 | – |
| CC/C=C\C/C=C\C/C=C\C/C=C\C/C=C\CCCC(=O)O[C@H](COC(=O)CCCCCCC/C=C\CCCCCC)COP(=O)([O-])OCC[N+](C)(C)C [PC 16:1@_20:5] (ion (formula + adduct): [C44H76NO8P+H] 1+) | 282.8 | – | – |
| CCCCCC/C=C\CCCCCCCC(=O)OC[C@H](COP(=O)([O-])OCC[N+](C)(C)C)OC(=O)CCCCCCC/C=C\CCCCCCC [PC 16:1_17:1] (ion (formula + adduct): [C41H78NO8P+H] 1+) | – | – | 281.9 |
| CCCCCCCC/C=C\CCCCCCCC(=O)O[C@H](COC(=O)/C=C\CCCCCCCCCCCCC)COP(=O)([O-])OCC[N+](C)(C)C [PC 16:1_18:1] (ion (formula + adduct): [C42H80NO8P+H] 1+) | – | – | 286.6 |
| CCCCC/C=C\C/C=C\CCCCCCCC(=O)O[C@H](COC(=O)CCCCCCC/C=C\CCCCCC)COP(=O)([O-])OCC[N+](C)(C)C [PC 16:1_18:2@] (ion (formula + adduct): [C42H78NO8P+H] 1+) | – | – | 281 |
| CCCCC/C=C\C/C=C\CCCCCCCC(=O)O[C@H](COC(=O)CCCCCCC/C=C\CCCCCC)COP(=O)([O-])OCC[N+](C)(C)C [PC 16:1_18:2] (ion (formula + adduct): [C42H78NO8P+H] 1+) | 282.8 | 282.6 | 282.6 |
| CCCCC/C=C\C/C=C\C/C=C\C/C=C\CCCC(=O)O[C@H](COC(=O)CCCCCCC/C=C\CCCCCC)COP(=O)([O-])OCC[N+](C)(C)C [PC 16:1_20:4] (ion (formula + adduct): [C44H78NO8P+H] 1+) | – | 286.4 | 285.8 |
| CC/C=C\C/C=C\C/C=C\C/C=C\C/C=C\CCCC(=O)O[C@H](COC(=O)CCCCCCC/C=C\CCCCCC)COP(=O)([O-])OCC[N+](C)(C)C [PC 16:1_20:5] (ion (formula + adduct): [C44H76NO8P+H] 1+) | – | – | 283.2 |
| CC/C=C\C/C=C\C/C=C\C/C=C\C/C=C\C/C=C\CCC(=O)O[C@H](COC(=O)CCCCCCC/C=C\CCCCCC)COP(=O)([O-])OCC[N+](C)(C)C [PC 16:1_22:6@] (ion (formula + adduct): [C46H78NO8P+H] 1+) | 289 | – | 288.4 |
| CC/C=C\C/C=C\C/C=C\C/C=C\C/C=C\C/C=C\CCC(=O)O[C@H](COC(=O)CCCCCCC/C=C\CCCCCC)COP(=O)([O-])OCC[N+](C)(C)C [PC 16:1_22:6] (ion (formula + adduct): [C46H78NO8P+H] 1+) | 288.5 | – | – |
| CCCCCCCC/C=C\CCCCCCCC(=O)O[C@H](COC(=O)CCCCCCCCCCCCCCCC)COP(=O)([O-])OCC[N+](C)(C)C [PC 17:0@_18:1] (ion (formula + adduct): [C43H84NO8P+H] 1+) | – | – | 291.8 |
| CCCCC/C=C\C/C=C\CCCCCCCC(=O)O[C@H](COC(=O)CCCCCCCCCCCCCCCC)COP(=O)([O-])OCC[N+](C)(C)C [PC 17:0@_18:2] (ion (formula + adduct): [C43H82NO8P+H] 1+) | 288.1 | – | – |

| SMILES | TIMS collisional cross section (sample type: Liver) [Å²] | TIMS collisional cross section (sample type: plasma) [Å²] | TIMS collisional cross section (sample type: HeLa) [Å²] |
| --- | --- | --- | --- |
| CCCCC/C=C\C/C=C\C/C=C\C/C=C\CCCC(=O)O[C@H](COC(=O)CCCCCCCCCCCCCCCC)COP(=O)([O-])OCC[N+](C)(C)C [PC 17:0@_20:4] (ion (formula + adduct): [C45H82NO8P+H] 1+) | – | 292.4 | – |
| CCCCC/C=C\C/C=C\CCCCCCCC(=O)O[C@H](COC(=O)CCCCCCCCCCCCCCCC)COP(=O)([O-])OCC[N+](C)(C)C [PC 17:0_18:2] (ion (formula + adduct): [C43H82NO8P+H] 1+) | 288.1 | – | – |
| CCCCC/C=C\C/C=C\C/C=C\C/C=C\CCCC(=O)O[C@H](COC(=O)CCCCCCCCCCCCCCCC)COP(=O)([O-])OCC[N+](C)(C)C [PC 17:0_20:4] (ion (formula + adduct): [C45H82NO8P+H] 1+) | – | 292.9 | – |
| CC/C=C\C/C=C\C/C=C\C/C=C\C/C=C\CCCC(=O)O[C@H](COC(=O)CCCCCCC/C=C\CCCCCCC)COP(=O)([O-])OCC[N+](C)(C)C [PC 17:1@_20:5] (ion (formula + adduct): [C45H78NO8P+H] 1+) | – | – | 286.4 |
| CCCCCCC/C=C\CCCCCCCC(=O)OC[C@H](COP(=O)([O-])OCC[N+](C)(C)C)OC(=O)CCCCCCC/C=C\CCCCCCCC [PC 17:1_18:1] (ion (formula + adduct): [C43H82NO8P+H] 1+) | – | – | 289.2 |
| CCCCC/C=C\C/C=C\CCCCCCCC(=O)O[C@H](COC(=O)CCCCCCC/C=C\CCCCCCC)COP(=O)([O-])OCC[N+](C)(C)C [PC 17:1_18:2] (ion (formula + adduct): [C43H80NO8P+H] 1+) | 285.6 | – | – |
| CCCCC/C=C\C=C/CCCCCCCCC(=O)O[C@H](COC(=O)CCCCCCCCCCCCCCCCC)COP(=O)([O-])OCC[N+](C)(C)C [PC 18:0@_18:2] (ion (formula + adduct): [C44H84NO8P+H] 1+) | – | 292.6 | – |
| CCCCC/C=C\C/C=C\C/C=C\C/C=C\CCCC(=O)O[C@H](COC(=O)CCCCCCCCCCCCCCCCC)COP(=O)([O-])OCC[N+](C)(C)C [PC 18:0@_20:4] (ion (formula + adduct): [C46H84NO8P+H] 1+) | – | 296 | – |
| CC/C=C\C/C=C\C/C=C\C/C=C\C/C=C\CCCC(=O)O[C@H](COC(=O)CCCCCCCCCCCCCCCCC)COP(=O)([O-])OCC[N+](C)(C)C [PC 18:0@_20:5] (ion (formula + adduct): [C46H82NO8P+H] 1+) | 296.3 | 295.4 | – |
| CCCCC/C=C\C/C=C\C/C=C\C/C=C\CCCCCC(=O)O[C@H](COC(=O)CCCCCCCCCCCCCCCCC)COP(=O)([O-])OCC[N+](C)(C)C [PC 18:0@_22:4] (ion (formula + adduct): [C48H88NO8P+H] 1+) | – | 300.7 | – |
| CCCCC/C=C\C/C=C\C/C=C\C/C=C\C/C=C\CCC(=O)O[C@H](COC(=O)CCCCCCCCCCCCCCCCC)COP(=O)([O-])OCC[N+](C)(C)C [PC 18:0@_22:5] (ion (formula + adduct): [C48H86NO8P+H] 1+) | – | 299.3 ± 0.42 | 298.9 |
| CCCCCC/C=C\CCCCCCCCCC(=O)O[C@H](COC(=O)CCCCCCCCCCCCCCCCC)COP(=O)([O-])OCC[N+](C)(C)C [PC 18:0_18:1] (ion (formula + adduct): [C44H86NO8P+H] 1+) | – | 295.2 | 294.7 |
| CCCCC/C=C\C=C/CCCCCCCCC(=O)O[C@H](COC(=O)CCCCCCCCCCCCCCCCC)COP(=O)([O-])OCC[N+](C)(C)C [PC 18:0_18:2] (ion (formula + adduct): [C44H84NO8P+H] 1+) | 292.8 | 291.1 | – |
| CCCCC/C=C\C/C=C\CCCCCCCCCC(=O)O[C@H](COC(=O)CCCCCCCCCCCCCCCCC)COP(=O)([O-])OCC[N+](C)(C)C [PC 18:0_20:2@] (ion (formula + adduct): [C46H88NO8P+H] 1+) | 297.5 | – | – |
| CCCCC/C=C\C/C=C\C/C=C\C/C=C\CCCC(=O)O[C@H](COC(=O)CCCCCCCCCCCCCCCCC)COP(=O)([O-])OCC[N+](C)(C)C [PC 18:0_20:4] (ion (formula + adduct): [C46H84NO8P+H] 1+) | 295.6 | – | 296.2 |
| CCCCC/C=C\C/C=C\C/C=C\C/C=C\C/C=C\CCC(=O)O[C@H](COC(=O)CCCCCCCCCCCCCCCCC)COP(=O)([O-])OCC[N+](C)(C)C [PC 18:0_22:5] (ion (formula + adduct): [C48H86NO8P+H] 1+) | 299.3 | 301 | – |
| CC/C=C\C/C=C\C/C=C\C/C=C\C/C=C\C/C=C\CCC(=O)O[C@H](COC(=O)CCCCCCCCCCCCCCCCC)COP(=O)([O-])OCC[N+](C)(C)C [PC 18:0_22:6] (ion (formula + adduct): [C48H84NO8P+H] 1+) | 297.9 | – | – |
